# Test results from US5739161A, “Agent for treating hepto.biliary diseases” (priority 1994, dated 1998).
# Like-named read-outs stand apart in the source and are kept apart here.
# Experiments:
# hepatocyte = settings: cited from earlier work
# [1] = test system: acute hepatopathy model (galactosamine-elicited); assay: D-galactosamine acute hepatopathy model in rats, serum biochemical liver function test (inhibiting ratio); format: in vivo, rat (Crj: Wister); settings: rat, oral; for inhibition in vivo at 0.03 mg/kg / inhibition in vivo at 0.1 mg/kg / inhibition in vivo at 1 mg/kg / inhibition in vivo at 0.01 mg/kg: 24 h; for inhibition in vivo at 0.01 mg/kg: 10 μg/kg × 3
# Description: (§1) Crj: Wister rats (7 weeks old, weight: 220-250 g) were kept without food for 16 hours, and hydrochloric acid-D-galactosamine 800 mg/kg was administrated by intra peritonealy injection in order to elicit acute hepatopathy model. After 24 hours from the administration of galactosamine, blood sample was collected under ether anesthesia and a serum was separated. The serum was assayed for serum biochemical profile of liver function test by an automatic analyzer (AU 550 available Orympus Kogaku Kogyo K.K.).
# (§2) Test compound was dissolved in 0.5% ethanol physiological saline, which was orally administered by force using an oral sonde for rat at 30 minutes before, 2 hours and 6 hours after the administration of the galactosamine.
# The following four items were tested for the serum biochemical liver function test: glutamic oxaloacetic transaminase (GOT), glutamic pyruvic transaminase (GPT) lactate dehydrogenase (LDH)
# The inhibiting Ratio (%) was obtained by the results of the serum biochemical profile of liver functional test how much the increases in the above four items by the administration of galactosamine was inhibited by the test compounds. The Inhibiting, Ratio (%) was calculated by the following equation: [formula] (All of the data in the equation are represented by average) […]
# (§3) This test was carried out according the same manner as in the Example 1 providing the following compounds were used as test compounds.
# (§4) This test was carried out according the same manner as in the Example 1 using the following compounds as test compounds.
# (§5) This test was carried out according the same manner as in the Example 1 excepting the following compounds were used as test compounds.
# [2] = observation of diarrhea and loose feces in the rats; format: in vivo, rat (Crj: Wister); settings: rat, oral
# Description: as §1, §2
# The generation of a diarrhea and a loose feces observed up to 2 hours after the 3rd administration of the test compounds, and the number of the rats having diarrhea or loose feces were recorded.
# as §3, §4, §5
# [3] = 30 μg/kg × 3, read-out: inhibiting ratio GOT
# [4] = 30 μg/kg × 3, read-out: inhibiting ratio GPT
# [5] = 30 μg/kg × 3, read-out: inhibiting ratio T-Bil
# [6] = 30 μg/kg × 3, up to 2 hours after 3rd administration
# [7] = 100 μg/kg × 3, read-out: inhibiting ratio GOT
# [8] = 100 μg/kg × 3, read-out: inhibiting ratio GPT
# [9] = 100 μg/kg × 3, read-out: inhibiting ratio T-Bil
# [10] = 100 μg/kg × 3, up to 2 hours after 3rd administration
# [11] = 1000 μg/kg × 3, read-out: inhibiting ratio GOT
# [12] = 1000 μg/kg × 3, read-out: inhibiting ratio GPT
# [13] = 1000 μg/kg × 3, read-out: inhibiting ratio T-Bil
# [14] = 1000 μg/kg × 3, up to 2 hours after 3rd administration
# [15] = read-out: inhibiting ratio T-Bil
# [16] = 10 μg/kg × 3, up to 2 hours after 3rd administration
smiles,measurement,setting,value
CCCCC[C@@](C)(O)/C=C/[C@H]1[C@H](O)CC(=O)[C@@H]1C/C=C\CCCC(=O)O [15-methyl-PGE2],hepatocyte protecting activity,hepatocyte,have a hepatocyte protecting activity
"CCCCC(C)(C)[C@H](O)/C=C/[C@H]1[C@H](O)CC(=O)[C@@H]1C/C=C\CCCC(=O)O [16,16-dimethyl-PGE2]",hepatocyte protecting activity,hepatocyte,have a hepatocyte protecting activity
"CCCCC(F)(F)C(=O)CC[C@H]1[C@H](O)CC(=O)[C@@H]1C/C=C\CCCC(=O)O [Test Compound 1, 13,14-dihydro-15-keto-16,16-difluoro-PGE2, reference compound]",inhibition in vivo at 0.03 mg/kg,[1]; [3],28%
same,inhibition in vivo at 0.03 mg/kg,[1]; [4],42%
same,inhibition in vivo at 0.03 mg/kg,[1]; [5],82%
same,inhibiting ratio LDH,[1]; 30 μg/kg × 3,22%
same,diarrhea / loose feces (number of rats having diarrhea or loose feces),[2]; [6],3/10
"CC(C)CCC(F)(F)C(=O)CC[C@H]1[C@H](O)CC(=O)[C@@H]1C/C=C\CCCC(=O)O [Test Compound 2, Z-7-[(1R,2R,3R)-2-(4,4-difluoro-7-methyl-3-oxooctyl)-3-hydroxy-5-oxocyclopentyl]hept-5-enoic acid]",inhibition in vivo at 0.03 mg/kg,[1]; [3],29%
same,inhibition in vivo at 0.03 mg/kg,[1]; [4],36%
same,inhibition in vivo at 0.03 mg/kg,[1]; [5],51%
same,inhibiting ratio LDH,[1]; 30 μg/kg × 3,32%
same,diarrhea / loose feces (number of rats having diarrhea or loose feces),[2]; [6],no diarrhea was observed in every rat
"CCCCC(F)(F)C(=O)CC[C@H]1[C@H](O)CC(=O)[C@@H]1CCCCCCC(=O)O [Test Compound 3, 13,14-dihydro-15-keto-16,16-difluoro-PGE1, reference compound]",inhibition in vivo at 0.1 mg/kg,[1]; [7],63%
same,inhibition in vivo at 0.1 mg/kg,[1]; [8],76%
same,inhibition in vivo at 0.1 mg/kg,[1]; [9],80%
same,inhibiting ratio LDH,[1]; 100 μg/kg × 3,61%
same,diarrhea / loose feces (number of rats having diarrhea or loose feces),[2]; [10],1/6
same,loose feces (number of rats),[2]; [10],2/6
"CCC[C@@H](C)C(F)(F)C(=O)CC[C@H]1[C@H](O)CC(=O)[C@@H]1CCCCCCC(=O)O [Test Compound 4, 7-[(1R,2R,3R)-2-{4,4-difluoro-5(R)-methyl-3-oxooctyl}-3-hydroxy-5-oxocyclopentyl]heptanoic acid]",inhibition in vivo at 0.1 mg/kg,[1]; [7],54%
same,inhibition in vivo at 0.1 mg/kg,[1]; [8],57%
same,inhibition in vivo at 0.1 mg/kg,[1]; [9],89%
same,inhibiting ratio LDH,[1]; 100 μg/kg × 3,51%
same,diarrhea / loose feces (number of rats having diarrhea or loose feces),[2]; [10],no diarrhea in any cases
"CC(C)CCC(F)(F)C(=O)CC[C@H]1[C@H](O)CC(=O)[C@@H]1CCCCCCC(=O)O [Test Compound 5, 7-[(1R,2R,3R)-2-(4,4-difluoro-7-methyl-3-oxooctyl)-3-hydroxy-5-oxocyclopentyl]heptanoic acid]",inhibition in vivo at 0.1 mg/kg,[1]; [7],51%
same,inhibition in vivo at 0.1 mg/kg,[1]; [8],66%
same,inhibition in vivo at 0.1 mg/kg,[1]; [9],72%
same,inhibiting ratio LDH,[1]; 100 μg/kg × 3,59%
same,diarrhea / loose feces (number of rats having diarrhea or loose feces),[2]; [10],no diarrhea in any cases
"CC(C)C[C@@H](C)C(F)(F)C(=O)CC[C@H]1[C@H](O)CC(=O)[C@@H]1CCCCCCC(=O)O [Test Compound 6, 7-[(1R,2R,3R)-2-{4,4-difluoro-5(R),7-dimethyl-3-oxooctyl}-3-hydroxy-5-oxocyclopentyl]heptanoic acid]",inhibition in vivo at 1 mg/kg,[1]; [11],60%
same,inhibition in vivo at 1 mg/kg,[1]; [12],71%
same,inhibition in vivo at 1 mg/kg,[1]; [13],88%
same,inhibiting ratio LDH,[1]; 1000 μg/kg × 3,63%
same,diarrhea / loose feces (number of rats having diarrhea or loose feces),[2]; [14],no diarrhea
"CC(C)CCC(F)(F)C(=O)CC[C@H]1CCC(=O)[C@@H]1CCCCCCC(=O)O [Test Compound 7, 7-[(1R,2R)-2-(4,4-difluoro-7-methyl-3-oxooctyl)-5-oxocyclopentyl]heptanoicacid]",inhibition in vivo at 1 mg/kg,[1]; [11],52%
same,inhibition in vivo at 1 mg/kg,[1]; [12],63%
same,inhibition in vivo at 1 mg/kg,[1]; [13],86%
same,inhibiting ratio LDH,[1]; 1000 μg/kg × 3,62%
same,diarrhea / loose feces (number of rats having diarrhea or loose feces),[2]; [14],no diarrhea
CCC[C@H](C)C(F)(F)C(=O)CC[C@H]1[C@H](O)CC(=O)[C@@H]1CCCCCCC(=O)O [Test Compound 8],inhibition in vivo at 1 mg/kg,[1]; [11],59%
same,inhibition in vivo at 1 mg/kg,[1]; [12],56%
same,inhibition in vivo at 1 mg/kg,[1]; [13],92%
same,inhibiting ratio LDH,[1]; 1000 μg/kg × 3,63%
same,diarrhea / loose feces (number of rats having diarrhea or loose feces),[2]; [14],no diarrhea
"CC[C@H](C)CC(F)(F)C(=O)CC[C@H]1[C@H](O)CC(=O)[C@@H]1CCCCCCC(=O)O [Test Compound 9, 7-[(1R,2R,3R)-2-{4,4-difluoro-6(S)-methyl-3-oxooctyl}-3-hydroxy-5-oxocyclopentyl]heptanoic acid]",inhibition in vivo at 0.1 mg/kg,[1]; [7],44%
same,inhibition in vivo at 0.1 mg/kg,[1]; [8],54%
same,inhibition in vivo at 0.1 mg/kg,[1]; [9],80%
same,inhibition in vivo at 1 mg/kg,[1]; [11],84%
same,inhibition in vivo at 1 mg/kg,[1]; [12],88%
same,inhibition in vivo at 1 mg/kg,[1]; [13],95%
same,diarrhea / loose feces (number of rats having diarrhea or loose feces),[2]; [10],non
same,diarrhea / loose feces (number of rats having diarrhea or loose feces),[2]; [14],non
"CCC[C@@H](C)C(F)(F)C(=O)CC[C@H]1CCC(=O)[C@@H]1CCCCCCC(=O)O [Test Compound 10, 7-[(1R,2R)-2-{4,4-difluoro-5(R)-methyl-3-oxooctyl}-5-oxocyclopentyl]heptanoic acid]",inhibition in vivo at 0.1 mg/kg,[1]; [7],36%
same,inhibition in vivo at 0.1 mg/kg,[1]; [8],39%
same,inhibition in vivo at 0.1 mg/kg,[1]; [9],59%
same,diarrhea / loose feces (number of rats having diarrhea or loose feces),[2]; [10],non
"CC[C@@H](C)CC(F)(F)C(=O)CC[C@H]1[C@H](O)CC(=O)[C@@H]1CCCCCCC(=O)O [Test Compound 11, 7-[(1R,2R,3R)-2-{4,4-difluoro-6(R)-methyl-3-oxooctyl}-3-hydroxy-5-oxocyclopentyl]heptanoic acid]",inhibition in vivo at 0.01 mg/kg,[1]; read-out: inhibiting ratio GOT,45%
same,inhibition in vivo at 0.01 mg/kg,[1]; read-out: inhibiting ratio GPT,34%
same,inhibition in vivo at 0.01 mg/kg,[1]; [15],56%
same,diarrhea / loose feces (number of rats having diarrhea or loose feces),[2]; [16],non
"CC(C)CC(F)(F)C(=O)CC[C@H]1[C@H](O)CC(=O)[C@@H]1CCCCCCC(=O)O [Test Compound 12, 7-[(1R,2R,3R)-2-(4,4-difluoro-6-methyl-3-oxoheptyl)-3-hydroxy-5-oxocyclopentyl]heptanoic acid]",inhibition in vivo at 0.1 mg/kg,[1]; [7],38%
same,inhibition in vivo at 0.1 mg/kg,[1]; [8],40%
same,inhibition in vivo at 0.1 mg/kg,[1]; [9],69%
same,diarrhea / loose feces (number of rats having diarrhea or loose feces),[2]; [10],non
"CCC(CC)CC(F)(F)C(=O)CC[C@H]1[C@H](O)CC(=O)[C@@H]1CCCCCCC(=O)O [Test Compound 13, 7-[(1R,2R,3R)-2-(4,4-difluoro-6-ethyl-3-oxooctyl)-3-hydroxy-5-oxocyclopentyl]heptanoic acid]",inhibition in vivo at 0.01 mg/kg,[1]; read-out: inhibiting ratio GOT,47%
same,inhibition in vivo at 0.01 mg/kg,[1]; read-out: inhibiting ratio GPT,42%
same,inhibition in vivo at 0.01 mg/kg,[1]; [15],75%
same,diarrhea / loose feces (number of rats having diarrhea or loose feces),[2]; [16],non
